pEC50: −log10 of the molar value. In brackets after ≈: the same amount, converted by molar mass. Read-outs that look alike come from different tables or passages of the source.
Columns and labels:
[1] = tested on: influenza A (H1N1); test: microbe, parasite or virus in culture; type: cell-based; details: strain A(H1N1), MDCK cells; for EC50: Influenza A virus, CPE inhibition, neutral red, read-out: EC50, 50% effective (virus-inhibitory) concentration
[2] = tested on: influenza A (H5N1); test: microbe, parasite or virus in culture; type: cell-based; details: for EC50: Influenza A virus, H5N1, MDCK, read-out: EC50, 50% effective (virus-inhibitory) concentration; for Selectivity Index (CC50 divided by EC50): strain A(H5N1), MDCK cells
[3] = tested on: influenza A (H3N2); test: microbe, parasite or virus in culture; type: cell-based; details: for EC50: Influenza A virus, H3N2, MDCK, read-out: EC50, 50% effective (virus-inhibitory) concentration; for Selectivity Index (CC50 divided by EC50): strain A(H3N2), MDCK cells
[4] = tested on: influenza B; test: microbe, parasite or virus in culture; type: cell-based; details: strain B, MDCK cells; for EC50: Influenza B virus, CPE inhibition, neutral red, read-out: EC50, 50% effective (virus-inhibitory) concentration
[5] = Cytotoxicity against mock-infected MT-4 cells, MTT; type: cell-based; details: human; mock-infected MT-4 cells, MTT; read-out: CC50, concentration required to reduce the viability of mock-infected MT-4 cells by 50%
Description: (§1) Compounds were tested for their inhibitory effects against replication of HIV-1 (IIIB) in MT-4 cells[1011]. The MT-4 cells were grown and maintained in RPMI 1640 DM medium supplemented with 10% (v/v) heat-inactivated fetal calf serum (FCS), 2 mM-glutamine, 0.1% sodium bicarbonate and 20 μg/ml gentamicin (culture medium). Inhibitory effect of test compounds on HIV-1 replications was monitored by inhibition of virus-induced cytopathic effect in MT-4 cells and was estimated by MTT assay. Briefly, 50 μl of HIV-1 (100-300 CCID50) were added to a flat-bottomed microtiter tray with 50 μl of medium containing various concentrations of compounds. MT-4 cells were added at a final concentration of 6×10^5 cells/ml. After 5 d of incubation at 37°, the number of viable cells were determined by the 3-(4,5-dimethylthiazol-2-yl)-2,5-diphenyl tetrazolium bromide (MTT) method. Cytotoxicity of test compounds against mock-infected MT-4 cells was also assessed by the MTT method. AntiHIV activity and cytotoxicity of standard AZT were also performed by a similar method in MT-4 cells.

[6] = tested on: HIV-1 (IIIB); test: Inhibition of HIV-1 (IIIB) induced cytopathic effect in MT-4 cells, MTT; type: cell-based; details: for pEC50: MTT, 5 d, read-out: EC50, concentration achieving 50% protection of MT-4 cells against the cytopathic effect of HIV
[7] = in vitro; details: dog
[8] = tested on: influenza A and B viruses; test: microbe, parasite or virus in culture; type: cell-based; details: MDCK, read-out: concentration inhibiting the replication of influenza A and B viruses
[9] = tested on: mock-infected MT-4 cells; test: Cytotoxicity against mock-infected MT-4 cells, MTT; type: cell-based
Description: as §1

[10] = Human immunodeficiency virus 1, MT4, 120 h

Row | Compound | EC50 [1] [µg/mL] | Selectivity Index (CC50 divided by EC50) [1] | EC50 [2] [µg/mL] | EC50 [3] [µg/mL] | Selectivity Index (CC50 divided by EC50) [3] | EC50 [4] [µg/mL] | Selectivity Index (CC50 divided by EC50) [4] | CC50 at 5 d [5] [µM] | pEC50 [6, 10] | CC50 [7] [µg/mL] | CC50 at 3 d [7] [µg/mL] | Selectivity Index (CC50 divided by EC50) [2] | EC50 [8] [µg/mL] | cytostatic activity in MT-4 cells (in words) ([9]; MT-4 cells) | CC50 ([9]; mock-infected MT-4 cells, MTT, read-out: CC50, concentration required to reduce the viability of mock-infected MT-4 cells by 50%) [µM] | Max Prot [6] | pEC50 [6]
1 | COc1c(N2CCN(CNc3ccc(S(=O)(=O)Nc4ncccn4)cc3)CC2)c(F)cc2c(=O)c(C(=O)O)cn(C3CC3)c12 [GF-SD] | 34 (≈ 54.5 µM) | >3 | > 100 | 52 (≈ 83.4 µM) | >1.9 | 97 (≈ 156 µM) | >1 | 70.1 | < 4.15 | > 100 | – | – | – | – | – | – | –
2 | CCn1cc(C(=O)O)c(=O)c2cc(F)c(N3CCN(CNc4ccc(S(=O)(=O)Nc5ncccn5)cc4)CC3)cc21 [NF-SD] | > 100 | – | > 32 | > 100 | – | > 32 | – | 66.8 | < 4.17 | – | 32 (≈ 55 µM) | – | – | – | – | – | –
3 | NC(=O)c1ncn([C@@H]2O[C@H](CO)[C@@H](O)[C@H]2O)n1 [Ribavirin, ribavirin, reference compound] | 3.7 (≈ 15.2 µM) | >27 | 4.3 (≈ 17.6 µM) | 5.9 (≈ 24.2 µM) | >17 | 5.5 (≈ 22.5 µM) | >18 | – | – | > 100 | – | >23 | 3.7 to 5.9 (≈ 15.2 to 24.2 µM) | – | – | – | –
4 | Cc1cc(C)nc(NS(=O)(=O)c2ccc(NCN3CCN(c4cc5c(cc4F)c(=O)c(C(=O)O)cn5C4CC4)CC3)cc2)n1 [CF-SDM] | 18 (≈ 29 µM) | >5.6 | > 100 | 30 (≈ 48.3 µM) | >3.3 | 53 (≈ 85.3 µM) | >2 | 70.8 | < 4.15 | > 100 | – | – | – | – | – | – | –
5 | CCn1cc(C(=O)O)c(=O)c2cc(F)c(N3CCN(CNc4ccc(S(N)(=O)=O)cc4)CC3)cc21 [NF-SA] | > 100 | – | > 100 | > 100 | – | 80 (≈ 159 µM) | >1.3 | 75.5 | < 4.12 | > 100 | – | – | – | – | – | – | –
6 | COc1c(N2CCN(CNc3ccc(S(N)(=O)=O)cc3)CC2)c(F)cc2c(=O)c(C(=O)O)cn(C3CC3)c12 [GF-SA] | > 100 | – | 32 (≈ 58.7 µM) | > 100 | – | 36 (≈ 66 µM) | >3 | 58.7 | < 4.23 | > 100 | – | >3 | – | – | – | – | –
7 | COc1c(N2CCN(CNc3ccc(S(=O)(=O)Nc4nc(C)cc(C)n4)cc3)CC2)c(F)cc2c(=O)c(C(=O)O)cn(C3CC3)c12 [GF-SDM] | 33 (≈ 50.6 µM) | >3.1 | 19 (≈ 29.2 µM) | 38 (≈ 58.3 µM) | >2.6 | 11 (≈ 16.9 µM) | >9 | 39.4 | < 4.40 | > 100 | – | >5 | – | marked cytostatic activity | – | – | –
8 | O=C(O)c1cn(C2CC2)c2cc(N3CCN(CNc4ccc(S(=O)(=O)Nc5ncccn5)cc4)CC3)c(F)cc2c1=O [CF-SD] | 16 (≈ 27 µM) | >6.1 | 33 (≈ 55.6 µM) | 41 (≈ 69.1 µM) | – | 32 (≈ 53.9 µM) | >3 | 74.1 | < 4.13 | > 100 | – | >3 | – | – | – | – | –
9 | CCn1cc(C(=O)O)c(=O)c2cc(F)c(N3CCN(CNc4ccc(S(=O)(=O)Nc5nc(C)cc(C)n5)cc4)CC3)cc21 [NF-SDM] | – | – | – | – | – | – | – | 56.3 | < 4.25 | – | – | – | – | – | – | – | –
10 | Cc1cn([C@H]2C[C@H](N=[N+]=[N-])[C@@H](CO)O2)c(=O)[nH]c1=O [AZT, reference compound] | – | – | – | – | – | – | – | – | – | – | – | – | – | – | 64.5 | 106 | 8.19
